According to patent publication US8754054B2, “Antibacterial compounds, methods of making them, and uses thereof” (Albany Molecular Research, Inc., priority 2010, dated 2014):
Converted amounts (≈) assume the structure as drawn. Structures can show the parent of a compound that is named as a salt. Where two headings read alike, the source gives them in different places.

Test system: MRSA 43300
Experiment: Antibacterial activity, NCCLS dilution method (Table 9)
Type: cell-based, S. aureus
Conditions: Staphylococcus aureus, MRSA, read-out: MRSA 43300 MIC
In short: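 MIC determined by dilution susceptibility testing following NCCLS standards M7-A6 and M100-S14 for aerobically growing bacteria.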

[1] = MRSA 43300, dilution method, labels marked a tested as a mixture of diastereomers

SMILES | MIC [1] | MIC
CO[C@@H]1[C@@H](O)[C@@H](OC)C(NC2=CC(=O)c3c(cc4c(c3O)C(=O)[C@]3(OC)[C@H](O)Cc5cc(C)c(C(=O)N6CCCCC6)c(O)c5[C@]3(O)C4=O)C2=O)O[C@H]1C (mixture of isomers) [Example 21, (6R,6aS,14aR)-1,6,8,14a-Tetrahydroxy-11-((3R,4R,5R,6S)-4-hydroxy-3,5-dimethoxy-6-methyltetrahydro-2H-pyran-2-ylamino)-6a-methoxy-3-methyl-2-(piperidine-1-carbonyl)-6,6a-dihydrobenzo[a]tetracene-7,9,12,14(5H,14aH)-tetraone] | 1 µg/mL (≈ 1.33 µM) | 
CO[C@@H]1[C@@H](O)[C@@H](OC)C(NC2=CC(=O)c3c(cc4c(c3O)C(=O)[C@]3(OC)[C@H](O)Cc5cc(C)c(C(=O)NCc6cccnc6)c(O)c5[C@]3(O)C4=O)C2=O)O[C@H]1C (mixture of isomers) [Example 17, (6R,6aS,14aR)-1,6,8,14a-Tetrahydroxy-11-((3R,4R,5R,6S)-4-hydroxy-3,5-dimethoxy-6-methyltetrahydro-2H-pyran-2-ylamino)-6a-methoxy-3-methyl-7,9,12,14-tetraoxo-N-(pyridin-3-ylmethyl)-5,6,6a,7,9,12,14,14a-octahydrobenzo[a]tetracene-2-carboxamide hydrochloride] |  | 32 µg/mL
CO[C@@H]1[C@@H](O)[C@@H](OC)C(NC2=CC(=O)c3c(cc4c(c3O)C(=O)[C@]3(OC)[C@H](O)Cc5cc(C)c(C(=O)N6CCCC6)c(O)c5[C@]3(O)C4=O)C2=O)O[C@H]1C (mixture of isomers) [Example 22, (6R,6aS,14aR)-1,6,8,14a-Tetrahydroxy-11-((3R,4R,5R,6S)-4-hydroxy-3,5-dimethoxy-6-methyltetrahydro-2H-pyran-2-ylamino)-6a-methoxy-3-methyl-2-(pyrrolidine-1-carbonyl)-6,6a-dihydrobenzo[a]tetracene-7,9,12,14(5H,14aH)-tetraone] | 1 µg/mL (≈ 1.36 µM) | 
CO[C@@H]1[C@@H](O)[C@@H](OC)C(NC2=CC(=O)c3c(cc4c(c3O)C(=O)[C@]3(OC)[C@H](O)Cc5cc(C)c(C(=O)OCc6ccccc6)c(O)c5[C@]3(O)C4=O)C2=O)O[C@H]1C (mixture of isomers) [Example 37, (6R,6aS,14aR)-Benzyl 1,6,8,14a-tetrahydroxy-11-((3R,4R,5R,6S)-4-hydroxy-3,5-dimethoxy-6-methyltetrahydro-2H-pyran-2-ylamino)-6a-methoxy-3-methyl-7,9,12,14-tetraoxo-5,6,6a,7,9,12,14,14a-octahydrobenzo[a]tetracene-2-carboxylate] | 0.25 µg/mL (≈ 0.323 µM) | 
COCCC/N=C1\C=C(N[C@H]2O[C@@H](C)[C@H](OC)[C@@H](O)[C@H]2OC)C(=O)c2cc3c(c(O)c21)C(=O)[C@]1(OC)[C@H](O)Cc2cc(C)c(C(=O)OC)c(O)c2[C@]1(O)C3=O [Example 47, (6R,6aS,14aR,E)-Methyl 1,6,8,14a-tetrahydroxy-11-((2S,3R,4R,5R,6S)-4-hydroxy-3,5-dimethoxy-6-methyltetrahydro-2H-pyran-2-ylamino)-6a-methoxy-9-(3-methoxypropylimino)-3-methyl-7,12,14-trioxo-5,6,6a,7,9,12,14,14a-octahydrobenzo[a]tetracene-2-carboxylate] | 1 to 2 µg/mL (≈ 1.3 to 2.6 µM) | 
COC(=O)c1c(C)cc2c(c1OC)[C@]1(O)C(=O)c3cc4c(c(OC)c3C(=O)[C@]1(OC)[C@H](O)C2)C(=O)C=C(NC1O[C@@H](C)[C@H](OC)[C@@H](O)[C@H]1OC)C4=O (mixture of isomers) [Example 5, (6R,6aS,14aR)-Methyl 6,14a-dihydroxy-11-((3R,4R,5R,6S)-4-hydroxy-3,5-dimethoxy-6-methyltetrahydro-2H-pyran-2-ylamino)-1,6a,8-trimethoxy-3-methyl-7,9,12,14-tetraoxo-5,6,6a,7,9,12,14,14a-octahydrobenzo[a]tetracene-2-carboxylate] | 2 µg/mL (≈ 2.76 µM) | 
COC(=O)c1c(C)cc2c(c1O)[C@]1(O)C(=O)c3cc4c(c(O)c3C(=O)[C@]1(OC)[C@H](O)C2)C(=O)C=C(N[C@H]1O[C@@H](C)[C@H](OC)[C@@H](O[C@@H]2O[C@H](CO)[C@@H](O)[C@H](O)[C@H]2O)[C@H]1OC)C4=O [Example 54, (6R,6aS,14aR)-Methyl 11-((2S,3R,4R,5S,6S)-3,5-dimethoxy-6-methyl-4-((2S,3R,4S,5S,6R)-3,4,5-trihydroxy-6-(hydroxymethyl)tetrahydro-2H-pyran-2-yloxy)tetrahydro-2H-pyran-2-ylamino)-1,6,8,14a-tetrahydroxy-6a-methoxy-3-methyl-7,9,12,14-tetraoxo-5,6,6a,7,9,12,14,14a-octahydrobenzo[a]tetracene-2-carboxylate] | 2 µg/mL (≈ 2.33 µM) | 
CNC(=O)c1c(C)cc2c(c1O)[C@]1(O)C(=O)c3cc4c(c(O)c3C(=O)[C@]1(OC)[C@H](O)C2)C(=O)C=C(NC1O[C@@H](C)[C@H](OC)[C@@H](O)[C@H]1OC)C4=O (mixture of isomers) [Example 19, (6R,6aS,14aR)-1,6,8,14a-Tetrahydroxy-11-((3R,4R,5R,6S)-4-hydroxy-3,5-dimethoxy-6-methyltetrahydro-2H-pyran-2-ylamino)-6a-methoxy-N,3-dimethyl-7,9,12,14-tetraoxo-5,6,6a,7,9,12,14,14a-octahydrobenzo[a]tetracene-2-carboxamide] | 2 µg/mL (≈ 2.87 µM) | 
CO[C@@H]1[C@@H](O)[C@@H](OC)C(NC2=CC(=O)c3c(cc4c(c3O)C(=O)[C@]3(OC)[C@H](O)Cc5cc(C)c(C(=O)NC(C)C)c(O)c5[C@]3(O)C4=O)C2=O)O[C@H]1C (mixture of isomers) [Example 31, (6R,6aS,14aR)-1,6,8,14a-Tetrahydroxy-11-((3R,4R,5R,6S)-4-hydroxy-3,5-dimethoxy-6-methyltetrahydro-2H-pyran-2-ylamino)-N-isopropyl-6a-methoxy-3-methyl-7,9,12,14-tetraoxo-5,6,6a,7,9,12,14,14a-octahydrobenzo[a]tetracene-2-carboxamide] | 2 µg/mL (≈ 2.76 µM) | 
CO[C@@H]1[C@@H](O)[C@@H](OC)[C@@H](NC2=CC(=O)c3c(cc4c(c3O)C(=O)[C@]3(OC)[C@H](O)Cc5cc(C)c(C(=O)O)c(O)c5[C@]3(O)C4=O)C2=O)O[C@H]1C [Example 13, (6R,6aS,14aR)-1,6,8,14a-Tetrahydroxy-11-((2S,3R,4R,5R,6S)-4-hydroxy-3,5-dimethoxy-6-methyltetrahydro-2H-pyran-2-ylamino)-6a-methoxy-3-methyl-7,9,12,14-tetraoxo-5,6,6a,7,9,12,14,14a-octahydrobenzo[a]tetracene-2-carboxylic acid] | 32 µg/mL (≈ 46.8 µM) | 
COC(=O)c1c(C)cc2c(c1O)[C@]1(O)C(=O)c3cc4c(c(O)c3C(=O)[C@]1(OC)[C@H](O)C2)C(=O)C=C(N[C@H]1O[C@@H](C)[C@H](OC)C(=NO)[C@H]1OC)C4=O (single isomer, unassigned) [Example 49] | 0.06 µg/mL (≈ 0.0844 µM) | 
COC(=O)c1c(C)cc2c(c1OCc1cccnc1)[C@]1(O)C(=O)c3cc4c(c(O)c3C(=O)[C@]1(OC)[C@H](O)C2)C(=O)C=C(N[C@H]1O[C@@H](C)[C@H](OC)[C@@H](O)[C@H]1OC)C4=O.Cl [Example 11, (6R,6aS,14aR)-Methyl 6,8,14a-trihydroxy-11-((2S,3R,4R,5R,6S)-4-hydroxy-3,5-dimethoxy-6-methyltetrahydro-2H-pyran-2-ylamino)-6a-methoxy-3-methyl-7,9,12,14-tetraoxo-1-(pyridin-3-ylmethoxy)-5,6,6a,7,9,12,14,14a-octahydrobenzo[a]tetracene-2-carboxylate hydrochloride] | 0.12 to 0.25 µg/mL | 
